Values quoted from earlier work in patent US20120183988A1, “INTEIN-BASED F[…]-CIRCUIT FOR VITAMIN D DETECTION” (priority 2009, published 2012).

Settings: cited from reference 2 (Haddad and Stamp 1974)

For C=C1CC[C@H](O)C/C1=C/C=C1\CCC[C@]2(C)[C@@H]([C@H](C)CCCC(C)(C)O)CC[C@@H]12 [25(OH)D3, 25-hydroxyvitamin D3], the serum half-life is given as “ca. 3 weeks”.
